Source: US20250333418A1, “PURINE COMPOUNDS, COMPOSITIONS COMPRISING THEM AND USES THEREOF” (Novo Nordisk A/S, priority 2022, published 2025)

Tests used:
human CB1 receptor [1] = target: T1, human CB1 receptor (Homo sapiens, UniProt P21554); test: bioSensAll GAPL-Gi2 BRET biosensor assay in HEK293 cells transfected with hCB1; test compound added before EC75-80 of agonist CP55,940 (0.1 nM); type: cell-based; conditions: vs CP55,940 0.1 nM (EC75-80), read-out: CB1 wt Gi2 IC50
T1 construct: expressed in transfected cells; host or cells: HEK293
T1 sequence (P21554 whole entry): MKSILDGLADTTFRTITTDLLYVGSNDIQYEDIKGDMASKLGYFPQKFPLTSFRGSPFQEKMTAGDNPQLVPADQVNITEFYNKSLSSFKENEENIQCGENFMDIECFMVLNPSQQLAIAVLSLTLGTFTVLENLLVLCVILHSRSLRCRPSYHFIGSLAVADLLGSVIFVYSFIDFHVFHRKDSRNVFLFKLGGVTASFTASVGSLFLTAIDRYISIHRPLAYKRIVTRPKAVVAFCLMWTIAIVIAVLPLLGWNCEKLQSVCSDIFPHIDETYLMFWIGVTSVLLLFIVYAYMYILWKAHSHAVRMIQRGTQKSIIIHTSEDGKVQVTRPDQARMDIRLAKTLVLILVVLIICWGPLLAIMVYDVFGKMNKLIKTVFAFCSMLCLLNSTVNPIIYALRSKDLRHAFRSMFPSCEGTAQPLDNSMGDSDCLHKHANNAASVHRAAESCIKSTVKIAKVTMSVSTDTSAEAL
Method in brief: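 Test compounds at 12 doses up to 600 nM preceded a 0.1 nM CP55,940 challenge in hCB1/GAPL-Gi2 HEK293 cells. After overnight 37° C incubation, methoxy e-coelenterazine (2 µM final) was added and the 515/400 nm BRET ratio normalized to positive and negative controls.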

human CB1 receptor [2] = target: T1, human CB1 receptor; test: bioSensAll β-arrestin2 plasma membrane translocation (+GRK2) BRET biosensor assay in HEK293 cells transfected with hCB1; test compound added before EC75-80 of agonist CP55,940 (100 nM); type: cell-based; conditions: βArrestin2 (+GRK2) BRET biosensor, vs CP55,940 100 nM (EC75-80), read-out: CB1 wt βarr2 IC50
Method in brief: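 Antagonist mode: compound at 12 concentrations up to 600 nM, then 100 nM CP55,940 3–5 min later, on hCB1-transfected HEK293 cells carrying the β-arrestin2 plasma-membrane biosensor plus GRK2. After overnight 37 °C incubation, 515/400 nm BRET ratio measured with 2 µM methoxy e-CTZ and standardized against positive/negative controls.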

SMILES | IC50 (human CB1 receptor [1]) [nM] | IC50 (human CB1 receptor [2]) [nM]
CN(CCO)c1nc(N(C)CCO)c2nc(-c3ccccc3Cl)n(-c3ccc(Cl)cc3)c2n1 [Compound 200] | 1.72 | 25.2
CCOC1(C(N)=O)CCN(c2nc(N(C)CCO)nc3c2nc(-c2ccccc2Cl)n3-c2ccc(Cl)cc2)CC1 [Compound 182] | 0.175 | 0.661
CC(C)(O)COc1nc(N2CC3CCC(C2)O3)c2nc(-c3ccccc3Cl)n(-c3ccc(Cl)cc3)c2n1 [Compound 214] | 1.09 | 6.06
CN(CC1(C)COC1)c1nc(-c2ccc(C(F)(F)F)nc2)c2nc(-c3ccccc3Cl)n(-c3ccc(Cl)cc3)c2n1 [Compound 126] | 8.07 | 20.7
Cc1nc(N2CCC(C)(C(N)=O)CC2)c2nc(-c3ccccc3Cl)n(-c3ccc(Cl)cc3)c2n1 [Compound 127] | 9.42 | 40.9
CN(CCO)C(=O)C1CN(c2nc(N(C)CCO)nc3c2nc(-c2ccccc2Cl)n3-c2ccc(Cl)cc2)C1 [Compound 187] | 3.97 | 40.4
CC(C)(O)COc1nc(N2CCC(C)(O)CC2)c2nc(-c3ccccc3Cl)n(-c3ccc(Cl)cc3)c2n1 [Compound 199] | 0.732 | 3.27
NC(=O)C1CCN(c2nc(N3CCC[C@H]3CO)nc3c2nc(-c2ccccc2Cl)n3-c2ccc(Cl)cc2)CC1 [Compound 154] | 0.813 | 7.28
CN(CCO)c1nc(N2CCN(C(N)=O)CC2)c2nc(-c3ccccc3Cl)n(-c3ccc(Cl)cc3)c2n1 [Compound 157] | 0.938 | 6.04
CC(C)Oc1nc(N(C)CCO)nc2c1nc(-c1ccccc1Cl)n2-c1ccc(Cl)cc1 [Compound 189] | 0.419 | 1.35
CN(CCO)c1nc(NC2CCOCC2)c2nc(-c3ccccc3Cl)n(-c3ccc(Cl)cc3)c2n1 [Compound 178] | 0.544 | 4.04
C[C@@H]1CN(c2nc(OCC(C)(C)O)nc3c2nc(-c2ccccc2Cl)n3-c2ccc(Cl)cc2)CCO1 [Compound 206] | 0.782 | 6.99
CN(CCO)c1nc(N2CCC(C)(O)CC2)c2nc(-c3ccccc3Cl)n(-c3ccc(Cl)cc3)c2n1 [Compound 181] | 0.181 | 0.592
CN(CCO)c1nc(N2CCC3(CCNC3=O)CC2)c2nc(-c3ccccc3Cl)n(-c3ccc(Cl)cc3)c2n1 [Compound 186] | 0.407 | 4.92
CN(CC(C)(C)O)c1nc(-c2ccc(C(F)(F)F)nc2)c2nc(-c3ccccc3Cl)n(-c3ccc(Cl)cc3)c2n1 [Compound 124] | 3.23 | 12.1

Other lines, results leading:

IC50 (human CB1 receptor [1]) [nM] | IC50 (human CB1 receptor [2]) [nM] | SMILES
0.417 | 3.45 | CC(CO)Oc1nc(N2CCC(C)(C(N)=O)CC2)c2nc(-c3ccccc3Cl)n(-c3ccc(Cl)cc3)c2n1 (single isomer, unassigned) [Compound 7, 1-[8-(2-chlorophenyl)-9-(4-chlorophenyl)-2-(2-hydroxy-1-methyl-ethoxy)purin-6-yl]-4-methyl-piperidine-4-carboxamide]
88.3 | 105 | CC(C)(O)COc1nc(N2CC(C)(O)C2)c2nc(-c3ccc(C#N)nc3)n(-c3ccc(Cl)cc3)c2n1 [Compound 112, 5-[9-(4-chlorophenyl)-6-(3-hydroxy-3-methyl-azetidin-1-yl)-2-(2-hydroxy-2-methyl-propoxy)purin-8-yl]pyridine-2-carbonitrile]
0.534 | 1.7 | CN(CCO)c1nc(N2CCC(C)(C(N)=O)CC2)c2nc(-c3ccc(C#N)nc3)n(-c3ccc(Cl)cc3)c2n1 [Compound 65, 1-[9-(4-chlorophenyl)-8-(6-cyano-3-pyridyl)-2-[2-hydroxyethyl(methyl)amino]purin-6-yl]-4-methyl-piperidine-4-carboxamide]
0.896 | 4.9 | C[C@H](CO)Oc1nc(N2CCC(C)(C(N)=O)CC2)c2nc(-c3ccccc3Cl)n(-c3ccc(Cl)cc3)c2n1 [Compound 81, 1-[8-(2-chlorophenyl)-9-(4-chlorophenyl)-2-[(1R)-2-hydroxy-1-methyl-ethoxy]purin-6-yl]-4-methyl-piperidine-4-carboxamide]
4.37 | 28.9 | Cc1cnn(-c2nc(N3CCC(C(F)(F)F)CC3)c3nc(-c4ccccc4Cl)n(-c4ccc(Cl)cc4)c3n2)c1 [Compound 21, 8-(2-chlorophenyl)-9-(4-chlorophenyl)-2-(4-methylpyrazol-1-yl)-6-[4-(trifluoromethyl)-1-piperidyl]purine]
1.2 | 2.29 | CN1C[C@H](F)C[C@H]1COc1nc(N2CCC(C)(C(N)=O)CC2)c2nc(-c3ccccc3Cl)n(-c3ccc(Cl)cc3)c2n1 [Compound 228]
0.5 | 3.09 | CC1(C(N)=O)CCN(c2nc(N(CCO)Cc3ccccc3)nc3c2nc(-c2ccccc2Cl)n3-c2ccc(Cl)cc2)CC1 [Compound 12, 1-[2-[benzyl(2-hydroxyethyl)amino]-8-(2-chlorophenyl)-9-(4-chlorophenyl)purin-6-yl]-4-methyl-piperidine-4-carboxamide]
1.16 | 6.26 | C[C@@H](O)CNc1nc(N2CCC(C)(C(N)=O)CC2)c2nc(-c3ccccc3Cl)n(-c3ccc(Cl)cc3)c2n1 [Compound 83, 1-[8-(2-chlorophenyl)-9-(4-chlorophenyl)-2-[[(2R)-2-hydroxypropyl]amino]purin-6-yl]-4-methyl-piperidine-4-carboxamide]
2.06 | 29.1 | CN(CCO)c1nc(N2CCC(C)(C(N)=O)CC2)c2nc(-c3ccncc3)n(-c3ccc(Cl)cc3)c2n1 [Compound 52, 1-[9-(4-chlorophenyl)-2-[2-hydroxyethyl(methyl)amino]-8-(4-pyridyl)purin-6-yl]-4-methyl-piperidine-4-carboxamide]
14.4 | 60 | FC(F)(F)C1CCN(c2nc(N3C[C@H]4CCC[C@H]4C3)nc3c2nc(-c2ccccc2Cl)n3-c2ccc(Cl)cc2)CC1 [Compound 30, 2-[(3aS,6aR)-3,3a,4,5,6,6a-hexahydro-1H-cyclopenta[c]pyrrol-2-yl]-8-(2-chlorophenyl)-9-(4-chlorophenyl)-6-[4-(trifluoromethyl)-1-piperidyl]purine]
0.718 | 1.62 | CCNC1(C(N)=O)CCN(c2nc(C#N)nc3c2nc(-c2ccccc2Cl)n3-c2ccc(Cl)cc2)CC1 [Compound 146, 1-(8-(2-chlorophenyl)-9-(4-chlorophenyl)-2-cyano-9H-purin-6-yl)-4-(ethylamino)piperidine-4-carboxamide]
68.8 | > 5000 | CN(C)c1ccc(-c2nc3c(N4CCC(C)(C(N)=O)CC4)nc(OCC(C)(C)O)nc3n2-c2ccc(Cl)cc2)cn1 [Compound 116, 1-[9-(4-chlorophenyl)-8-[6-(dimethylamino)-3-pyridyl]-2-(2-hydroxy-2-methyl-propoxy)purin-6-yl]-4-methyl-piperidine-4-carboxamide]
3.51 | 26.2 | Cc1cc(C#N)ncc1-c1nc2c(N3CCC(C)(C(N)=O)CC3)nc(OCC(C)(C)O)nc2n1-c1ccc(Cl)cc1 [Compound 108, 1-[9-(4-chlorophenyl)-8-(6-cyano-4-methyl-3-pyridyl)-2-(2-hydroxy-2-methyl-propoxy)purin-6-yl]-4-methyl-piperidine-4-carboxamide]
0.617 | 2.39 | CC1(C(N)=O)CCN(c2nc(OC3CCCOC3)nc3c2nc(-c2ccccc2Cl)n3-c2ccc(Cl)cc2)CC1 (centres unmarked) [Compound 17, 1-[8-(2-chlorophenyl)-9-(4-chlorophenyl)-2-tetrahydropyran-3-yloxy-purin-6-yl]-4-methyl-piperidine-4-carboxamide]
131 | > 5000 | CC(C)(O)COc1nc(N2CCC(C)(C(N)=O)CC2)c2nc(-c3cccnc3)n(-c3ccc(Cl)cc3)c2n1 [Compound 103, 1-[9-(4-chlorophenyl)-2-(2-hydroxy-2-methyl-propoxy)-8-(3-pyridyl)purin-6-yl]-4-methyl-piperidine-4-carboxamide]
0.961 | 16 | CC1(C(N)=O)CCN(c2nc(N3CCNC[C@H]3CO)nc3c2nc(-c2ccccc2Cl)n3-c2ccc(Cl)cc2)CC1 [Compound 5, 1-[8-(2-chlorophenyl)-9-(4-chlorophenyl)-2-[(2S)-2-(hydroxymethyl)piperazin-1-yl]purin-6-yl]-4-methyl-piperidine-4-carboxamide]
7.11 | 15.5 | CC(C)(O)COc1nc(N2CC(C)(C#N)C2)c2nc(-c3ccc(C#N)nc3)n(-c3ccc(Cl)cc3)c2n1 [Compound 113, 5-[9-(4-chlorophenyl)-6-(3-cyano-3-methyl-azetidin-1-yl)-2-(2-hydroxy-2-methyl-propoxy)purin-8-yl]pyridine-2-carbonitrile]
2.45 | 27.9 | CN(CCO)c1nc(N2CCC(C)(C(N)=O)CC2)c2nc(-c3ccc(C#N)cn3)n(-c3ccc(Cl)cc3)c2n1 [Compound 64, 1-[9-(4-chlorophenyl)-8-(5-cyano-2-pyridyl)-2-[2-hydroxyethyl(methyl)amino]purin-6-yl]-4-methyl-piperidine-4-carboxamide]
1.02 | 5.09 | C[C@H](O)COc1nc(N2CCC(C)(C(N)=O)CC2)c2nc(-c3ccccc3Cl)n(-c3ccc(Cl)cc3)c2n1 [Compound 80, 1-[8-(2-chlorophenyl)-9-(4-chlorophenyl)-2-[(2S)-2-hydroxypropoxy]purin-6-yl]-4-methyl-pi-peridine-4-carboxamide]
